Experimental data as given in US9546401B2, “Assays and methods for selecting a treatment regimen for a subject with depression” (The General Hospital Corporation, priority 2011, dated 2017).
Read-outs that look alike come from different tables or passages of the source.

Assays:
[1] = tested on: MDD patients positive or negative for SNP biomarkers; details: subjects positive for MTR 2756 AG or GG versus negative
Description: A responder is indicated by a reduction of at least about 50% in HAMD-28 over the evaluation period.

[2] = tested on: SSRI-resistant outpatients with major depressive disorder (MDD)
Description: Using the sequential parallel design […] For those randomly assigned to the placebo/placebo sequence, both responders and non-responders to placebo during the first phase (n=25) remain on placebo during the second phase. […] Data from the previous double-blind, placebo-controlled study (Trial 1) can be pooled into the instant study (Trial 2) to provide a more accurate estimate of the placebo effect size, with a weighted average from the two Phases 1 (one from Trial 1 and one from Trial 2) and two Phases 2 (one from Trial 1 and one from Trial 2).
The primary efficacy measure can include the change in 17-item Hamilton Rating Scale for Depression (HAM-D-17) score. […] A remission is, for example, defined as a HAM-D-17 score less than 8 at endpoint. Secondary measures of efficacy can include change in CGI-severity, with “clinical response defined” as CGI-S of 1 or 2 at endpoint. Patients with a CGI-I score greater than 5 at any post baseline visit or a 50 percent or greater worsening of depressive symptoms from baseline to that visit are discontinued from the study. Subjects are also discontinued from the study with any emergence of suicidality, homicidality, mania, or psychosis. Additional exemplary instruments that can be administered according to the study schedule include the following: • (1) Structured Clinical Interview for DSM-IV: The SCID-I/P, administered by the clinician, proceeds by modules to diagnose the different Axis I disorders. Questions are asked exactly as written, and each is based on the individual criteria from DSM-IV. Answers are generally rated on a scale of 1-3 (1=doubtful, 2=probable, 3=definite), and, based on the number of positive answers, a diagnosis is determined by a clinician. While the entire SCID-I/P is administered at screen, the mood module is administered at each follow up visit. • (2) The MGH Antidepressant Treatment History Questionnaire (MGH-ATR): The MGH-ATR provides specific criteria for the adequate dose and adequate length of a trial for it to be considered a failure, thus allowing clinicians to systematically collect data aimed at assessing the degree of treatment-resistance of the current major depressive episode. • (3) The 28-item Hamilton Depression Scale (HAM-D-28): This version allows scoring of the HAM-D-17, 21-, 25-, and 28-item scales. This instrument is completed by the clinician by using a structured interview and defined anchor points, and aims to quantify the degree of depression over the past 7 days. The HAM-D is the most widely studied instrument for depression, and its reliability and validity are high. • (4) Clinical Global Impressions—Severity and Improvement (CGI-S, CGI-I): These two instruments are scored 1-7 by the clinician based on assessment of the patient's clinical status. They measure, based on history and scores on other instruments: a) Depressive severity (CGI-S) and b) Clinical Improvement (CGI-I). […] Safety Measurements
Data are entered and error-checked at each clinical site involved in the study. Study staff and subjects may have the option to enter self-evaluations into the system directly using DatStat Illume™. The process of data entry is supervised by the DCRP staff. Once the data set is entered and checked, analyses are conducted. Both a completer analysis of all patients finishing the trial and an intent-to-treat analysis examining all patients enrolled into the trial are used to define the severity of depression at endpoint. Examination of both study completers and all patients randomized can provide the broadest assessment of the effects of treatment in trials of such kind. The data from Trial 2 can be pooled with those from Trial 1 with the sequential parallel comparison design, to provide an estimate of the placebo response based on a larger sample size. […] Let p1, q1 be the response rates to the first administration of drug and placebo respectively and let p2, q2 be the responses rates to the second treatment.

[3] = Pooled Phase 1 and 2, 7.5 mg/day + SSRI

## CN1c2c(nc(N)[nH]c2=O)NC[C@@H]1CNc1ccc(C(=O)N[C@@H](CCC(=O)O)C(=O)O)cc1 [6(S)-5-MTHF, 6(S)-5-methyltetrahydrofolate]
[1]
  treatment effect within genetic modifiers (race, age, sex, BMI): statistically significant treatment effect
[2]; 7.5 mg/day
  efficacy as an adjunct to the SSRIs: not effective
[2]; Phase 1, 7.5 mg/day + SSRI
  CGI-S Mean score reduction: −0.5
  HDRS-17 % Remission: 11.1%
  HDRS-17 % Response: 19.4%
  HDRS-17 Mean score reduction: −4.3
  QIDS-SR % Remission: 0.0%
  QIDS-SR % Response: 25.0%
  QIDS-SR Mean score reduction: −4.6
[2]; Phase 2, 7.5 mg/day + SSRI
  CGI-S Mean score reduction: −0.5
  HDRS-17 % Remission: 14.2%
  HDRS-17 % Response: 17.1%
  HDRS-17 Mean score reduction: −3.1
  QIDS-SR % Remission: 8.5%
  QIDS-SR % Response: 8.5%
  QIDS-SR Mean score reduction: −1.9
[2]; [3]
  CGI-S Mean score reduction: −0.53
  HDRS-17 % Remission: 12.7%
  HDRS-17 % Response: 18.3%
  HDRS-17 Mean score reduction: −3.70
  QIDS-SR % Remission: 4.3%
  QIDS-SR % Response: 16.8%
  QIDS-SR Mean score reduction: −3.25
[2]; Trial 1, 15 mg/day in second phase
  increase in response and remission rate versus placebo with the SSRIs: at least 2 fold
[2]; Trial 1, drug/drug sequence, dose increased to 15 mg/day in second phase, placebo 9%, p=0.1
  response and remission rate: 24%
